Laboratory results as given in article PMC9855333, “1-(Arylsulfonyl-isoindol-2-yl)piperazines as 5-HT6R Antagonists: Mechanochemical Synthesis, In Vitro Pharmacological Properties and Glioprotective Activity” (Biomolecules, 2022).

Key:
C8-D1A astrocytes [1] = assay: Glioprotection against 6-OHDA-induced cytotoxicity, MTT; type: cell-based, mouse; conditions: compound 0.25 µM, 6-OHDA 20 µM, 24 h
Experimental: (§1) Mouse astrocytes (C8-D1A cell line, ATCC) were cultured in DMEM (Dulbecco’s Modified Eagle’s Medium) supplemented with 10% FBS (FBS; Gibco, Life Technologies, Carlsbad, CA, USA) and 1% antibiotic mixture (Gibco, Life Technologies, Carlsbad, CA, USA) at standard condition until the cells reached 80–90% confluence. Cells were harvested and seeded in 96-well plates at a density of 5000 cells/well. All experiments were conducted with a reduced amount of serum equal to 2.5%. The optimal amount of serum was determined experimentally on the basis of preliminary studies. […] Then 6-OHDA (20 µM) or rotenone (0.5 µM) were added and co-incubated for the next 24 h. The ability of tested compounds to prevent 6-OHDA-induced or rotenone-induced cytotoxicity was assessed by MTT assay following the protocol described above. The experiments were run three times in triplicates.
(§2) Considering the pivotal physiological role of astrocytes in contrasting oxidative stress and promoting tissue repair, supporting their neuroprotective function might be regarded as a tangible strategy to improve the current therapeutic needs in the treatment of neurodegenerative disorders. […] For this purpose, cells were co-incubated with the evaluated compounds (at the non-toxic concentration of 0.25 µM) and 6-OHDA or ROT (20 and 0.5 µM, respectively). After 24 h of incubation, the viability of astrocytes was determined using the MTT assay.

C8-D1A astrocytes [2] = assay: Glioprotection against rotenone-induced cytotoxicity, MTT; type: cell-based, mouse; conditions: compound 0.25 µM, rotenone 0.5 µM, 24 h
Experimental: as §1, §2

O=S(=O)(c1cccc(N2CCNCC2)c1)N1Cc2cccc(Br)c2C1 [3g, 4-Bromo-2-{[3-(piperazin-1-yl)phenyl]sulfonyl}isoindoline]
effect on 6-OHDA-induced cytotoxicity (C8-D1A astrocytes [1]): decreased the cytotoxicity
effect on ROT-induced cytotoxicity (C8-D1A astrocytes [2]): decreased the cytotoxicity
